Measured values as given in PMC9772252 (Cell chemical biology, 2022).

Target: T1, GPX4 (glutathione peroxidase 4) (Homo sapiens, UniProt P36969, U73C)
T1 sequence (P36969 33-197 U73C): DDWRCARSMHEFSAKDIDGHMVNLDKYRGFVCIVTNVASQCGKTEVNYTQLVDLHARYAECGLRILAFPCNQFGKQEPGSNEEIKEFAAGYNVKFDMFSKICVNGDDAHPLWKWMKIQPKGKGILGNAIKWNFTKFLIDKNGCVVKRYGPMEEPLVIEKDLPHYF
Test: SPR
Type: binding

Kd: 60 µM
SMILES: COC(=O)c1ccc([C@H]2c3[nH]c4ccccc4c3C[C@H](C(=O)OC)N2C(C)=O)cc1 [RSL3-minus-Cl, Methyl (1S,3R)-2-acetyl-1-(4-(methoxycarbonyl)phenyl)-2,3,4,9-tetrahydro-1H-pyrido[3,4-b] indole-3-carboxylate]
